Where only a bound is given, the exact number is not on record here.

For test [1], the system named is diabetic ob/ob mice. Nature of the test: Blood glucose in adult male diabetic ob/ob mice. Type of test: in vivo. The note with it: 10 mg/kg orally at 12-hr intervals, 5 doses, pantothenate-deficient chow, in 30% Captisol; non-diabetic range 120±20 mg/dL. How it is done: Compound was administered orally at 12-hr intervals for a total of 5 doses starting at T=0 hr. Blood glucose from the tail vein was measured just prior to each administration. Compound was formulated in 30% Captisol (o); 30% Captisol only (•).

The target in test [2] is hPanK3 (Homo sapiens, UniProt Q9H999). Put plainly: Inhibition of PanK kinase activity (phosphorylation of pantothenate, purified protein). The note with it: for Ki: Morrison Ki fit. The test is classed as biochemical.
Chain of hPanK3 (Q9H999 whole entry): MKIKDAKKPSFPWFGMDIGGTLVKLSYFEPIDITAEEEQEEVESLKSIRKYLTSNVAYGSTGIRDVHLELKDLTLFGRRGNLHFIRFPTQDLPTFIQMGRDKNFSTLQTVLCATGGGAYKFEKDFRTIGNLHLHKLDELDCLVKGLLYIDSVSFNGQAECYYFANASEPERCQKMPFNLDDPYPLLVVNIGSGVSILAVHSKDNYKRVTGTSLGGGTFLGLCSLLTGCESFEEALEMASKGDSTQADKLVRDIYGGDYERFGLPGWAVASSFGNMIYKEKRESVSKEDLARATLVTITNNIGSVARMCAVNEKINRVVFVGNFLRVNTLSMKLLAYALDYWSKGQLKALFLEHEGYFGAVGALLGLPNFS

On to `CC(C)c1ccc(CC(=O)N2CCN(c3ccc(C#N)nn3)CC2)cc1` [6-(4-(2-(4-isopropylphenyl)acetyl)piperazin-1-yl)pyridazine-3-carbonitrile], for which, in test [1], the blood glucose level result is “reduces the blood glucose level to values within the range of non-diabetic mice”.
For orientation: IC50 means the concentration needed to halve the response being measured. Regarding `N#Cc1ccc(N2CCN(C(=O)NC3CCCCC3)CC2)nc1` [Compound 19], in test [2], the IC50 was above 10000 nM.
Still for that read-out and setting: next, `CC(C)(C)NC(=O)N1CCN(c2ccc(C#N)cn2)CC1` [Compound 20]: above 10000 nM; `CCCCCCCCNC(=O)N1CCN(c2ccc(C#N)cn2)CC1` [Compound 21]: above 10000 nM; `CC(C)NC(=O)N1CCN(c2ccc(C#N)cn2)CC1` [Compound 22]: above 10000 nM.
Same read-out and setting: next, `Cc1ccc(CNC(=O)N2CCN(c3ccc(C#N)cn3)CC2)cc1` [Compound 24]: above 10000 nM; `N#Cc1ccc(N2CCN(C(=O)NCc3ccco3)CC2)nc1` [Compound 25]: above 10000 nM; `CC(C)c1cc(NC(=O)N2CCN(c3ccc(C#N)cn3)CC2)on1` [Compound 27]: above 10000 nM.
What is called Ki is the dissociation constant of the complex between target and ligand, obtained from inhibition or displacement. On to `CCC(C)c1ccc(NC(=O)N2CCN(c3ccc(C#N)nn3)CC2)cc1` (centres unmarked) [Compound 66], for which the Ki in test [2] is 7.8 nM. In other words, the single-digit nanomolar range.
Turning to `CC(C)(C)c1ccc(CC(=O)N2CCN(c3ccc(C#N)nn3)CC2)cc1` [Compound 73], the Ki in test [2] stood at 0.97 nM. This Ki lies about 8-fold lower than the previous one.
Still for that read-out and setting: next, `CC(C)(C)c1ccc(CC(=O)N2CCN(c3ccc(Cl)nn3)CC2)cc1` [Compound 74]: 1.8 nM; `CC(C)c1ccc(OC(=O)N2CCN(c3ccc(Cl)nn3)CC2)cc1` [Compound 76]: 1.8 nM.
Same read-out and setting: next, `CC(C)(C)c1ccc(C(F)(F)C(=O)N2CCN(c3ccc(C#N)nn3)CC2)cc1` [Compound 77]: 20.8 nM.
Same read-out and setting: next, `Cc1cc(OC(=O)N2CCN(c3ccc(C#N)nn3)CC2)ccc1C(C)C` [Compound 80]: 55.7 nM; `CC(C)c1ccc(CC(=O)N2CCN(c3ccc(C#N)nn3)CC2)nc1` [Compound 82]: 62.5 nM.
`CC(C)c1ccc(CC(=O)N2CC[C@@H](Nc3ccc(C#N)nn3)C2)cc1` [Compound 84] displayed an inhibition constant (Ki) in test [2] of 9.1 nM.
The same measure, in the same setting: with `CC(C)c1ccc(CC(=O)N[C@H]2CCN(c3ccc(C#N)nn3)C2)cc1` [Compound 85] the figure was 7.1 nM.
On the same count and under the same terms, with `CC(C)c1ccc(CC(=O)N[C@@H]2CCN(c3ccc(C#N)nn3)C2)cc1` [Compound 86] the figure was 26.6 nM; with `CC(C)c1ccc(CC(=O)N[C@H]2CN(c3ccc(C#N)nn3)C[C@@H]2O)cc1` [Compound 87], 12.3 nM.
`CC(C)c1ccc(NC(=O)N[C@H]2CCN(c3ccc(C#N)nn3)C2)cc1` [Compound 88] came in with an inhibition constant Ki in test [2] of 36.3 nM.
On the same count and under the same terms, next, `CC(C)c1ccc(CC(=O)NCCNc2ccc(C#N)nn2)cc1` [Compound 90]: 28.3 nM; `CC(C)c1ccc(CC(=O)N[C@@H]2CN(c3ccc(C#N)nn3)C[C@H]2O)cc1` [Compound 91]: 35 nM; `CC(C)c1ccc(CC(=O)N[C@@H]2CN(c3ccc(C#N)nn3)C[C@@H]2O)cc1` [Compound 92]: 40.8 nM.
Still for that read-out and setting: with `CC(C)c1ccc(CC(=O)N[C@H]2CCN(c3ccc(C#N)nn3)C2)cc1F` [Compound 94] the figure was 1.1 nM; with `CC(C)c1ccc(CC(=O)N[C@H]2CN(c3ccc(C#N)nn3)C[C@@H]2O)cc1F` [Compound 95], 51 nM; with `CC(C)c1ccc(CC(=O)N[C@H]2CCN(c3ccc(C#N)nn3)C2)c(F)c1` [Compound 100], 1.5 nM.
`CC(C)c1ccc(CC(=O)N[C@@H]2CN(c3ccc(C#N)nn3)C[C@H]2O)cc1F` [Compound 105] registered a Ki in test [2] of 44.8 nM. This Ki lies about 30-fold higher than the previous one.
Still for that read-out and setting: next, `CC(C)c1ccc(CC(=O)N[C@H]2CCN(c3ccc(C#N)nn3)C2)cn1` [Compound 106]: 5.9 nM; `CC(C)c1ccc(CC(=O)N[C@@H]2CN(c3ccc(C#N)nn3)C[C@H]2O)c(F)c1` [Compound 107]: 21.1 nM.
On the same count and under the same terms, with `CC(C)c1ccc(N(C)C(=O)N2CCN(c3ccc(C#N)nn3)CC2)cc1` [Compound 108] the figure was 14.1 nM.
The same measure, in the same setting: with `CC(C)c1ccc(OC(=O)N2CCN(c3cnc(C#N)cn3)CC2)cc1` [Compound 110] the figure was 33.7 nM; with `CC(C)c1ccc(NC(=O)N2CCN(c3cnc(Cl)cn3)CC2)cc1` [Compound 113], 21 nM; with `CC(C)c1ccc(CC(=O)N2CCN(c3ncc(Cl)nc3N)CC2)cc1` [Compound 116], 12.5 nM.
On to `CC(C)c1ccc(CC(=O)NC2CCN(c3ccc(C#N)nn3)CC2)cc1` [Compound 118], for which, in test [2], affinity was put at a Ki of 5 nM.
For the compound `CC(C)c1ccc(CC(=O)N2CCN(c3ccc(C#N)nn3)CC2)s1` [Compound 119], the Ki in test [2] is 3.3 nM.
The same measure, in the same setting: next, `CC(C)c1ccc(CC(=O)N2CCN(c3ccc([N+](=O)[O-])nc3)CC2)cc1` [Compound 120]: 0.64 nM; `CC(C)c1ccc(CC(=O)N2CCN(c3ccc(C#N)nn3)C[C@H]2C)cc1` [Compound 121]: 1.4 nM.
Still for that read-out and setting: next, `CC(C)c1ccc(CC(=O)N2CCN(c3cnc(Cl)cn3)CC2)s1` [Compound 122]: 4.1 nM; `CC(C)c1ccc(CC(=O)N2CCN(c3ccc(C#N)nn3)[C@H](C)C2)cc1` [Compound 123]: 0.13 nM.
On the same count and under the same terms, with `CC(C)c1ccc(CC(=O)N2CCN(c3ccc(C#N)nn3)C[C@@H]2C)cc1` [Compound 124] the figure was 1.1 nM; with `CC(C)c1ccc(CC(=O)N2CCN(c3ccc(C#N)nn3)[C@@H](C)C2)cc1` [Compound 126], 0.09 nM; with `CC(C)c1ccc(CC(=O)N2CCN(c3ccc(C#N)nn3)[C@@H](C)C2)s1` [Compound 128], 1.3 nM.
In test [2], `CSc1ccc(CC(=O)N2CCN(c3ccc(C#N)nn3)[C@H](C)C2)cc1` [Compound 129] returned a Ki of 22.4 nM.
Still for that read-out and setting: next, `CC(C)c1ccc(CC(=O)N2CCN(c3ccc(C#N)nn3)[C@H](C)C2)cn1` [Compound 131]: 9 nM; `CC(C)c1ccc(CC(=O)N2CCN(c3ccc(C#N)nn3)[C@@H](C)C2)cn1` [Compound 132]: 12.6 nM.
The same measure, in the same setting: with `CC(C)c1ccc(CC(=O)N2CCN(c3ccc(Cl)nn3)[C@@H](C)C2)cn1` [Compound 133] the figure was 9.7 nM; with `CC(C)c1ccc(CC(=O)N2CCN(c3ccc(Cl)nn3)[C@H](C)C2)cn1` [Compound 134], 10.6 nM.
Still for that read-out and setting: with `CSc1cccc(CC(=O)N2CCN(c3ccc(C#N)nn3)[C@H](C)C2)c1` [Compound 135] the figure was 38 nM.
Turning to `CC(C)c1ccc(CC(=O)N2CCN(c3ccc(C#N)nn3)C(C)(C)C2)cc1` [Compound 136], the Ki in test [2] was found to be 2.4 nM.
The same measure, in the same setting: next, `CC(C)c1ccc(CC(=O)N2C[C@@H](C)N(c3ccc(C#N)nn3)[C@@H](C)C2)cc1` [Compound 137]: 0.27 nM; `CC(C)c1ccc(OC(=O)N2CCN(c3ccc(C#N)nn3)[C@@H](C)C2)cc1` [Compound 138]: 7.6 nM.
The compound `CC(C)c1ccc(OC(=O)N2CCN(c3ccc(C#N)nn3)[C@H](C)C2)cc1` [Compound 139] yielded a Ki in test [2] of 4.7 nM.
Still for that read-out and setting: with `C[C@H]1CN(C(=O)Cc2ccc(C(C)(C)C)cc2)CCN1c1ccc(C#N)nn1` [Compound 140] the figure was 1 nM; with `C[C@@H]1CN(C(=O)Cc2ccc(C(C)(C)C)cc2)CCN1c1ccc(C#N)nn1` [Compound 141], 1.7 nM; with `CC(c1ccc(CC(=O)N2CCN(c3ccc(C#N)nn3)[C@@H](C)C2)cc1)C(F)(F)F` (some centres unmarked) [Compound 144], 2.5 nM.
`CC(c1ccc(CC(=O)N2CCN(c3ccc(C#N)nn3)[C@H](C)C2)cc1)C(F)(F)F` (some centres unmarked) [Compound 145]: in test [2], the Ki was found to be 1.5 nM.

The values above are taken from patent publication US12552765B2, “Small molecule modulators of pantothenate kinases” (ST. JUDE CHILDREN'S RESEARCH HOSPITAL, INC., priority 2016, dated 2026).
